Activity calls are given as the source filed them. No cut-off for these calls is given here.
Tests used:
Prolyl endopeptidase FAP = molecular target: T1, Prolyl endopeptidase FAP (Homo sapiens, UniProt Q12884); assay: Inhibition of FAP (unknown origin) using AMC substrate by fluorometric assay
T1 sequence (Q12884 whole entry): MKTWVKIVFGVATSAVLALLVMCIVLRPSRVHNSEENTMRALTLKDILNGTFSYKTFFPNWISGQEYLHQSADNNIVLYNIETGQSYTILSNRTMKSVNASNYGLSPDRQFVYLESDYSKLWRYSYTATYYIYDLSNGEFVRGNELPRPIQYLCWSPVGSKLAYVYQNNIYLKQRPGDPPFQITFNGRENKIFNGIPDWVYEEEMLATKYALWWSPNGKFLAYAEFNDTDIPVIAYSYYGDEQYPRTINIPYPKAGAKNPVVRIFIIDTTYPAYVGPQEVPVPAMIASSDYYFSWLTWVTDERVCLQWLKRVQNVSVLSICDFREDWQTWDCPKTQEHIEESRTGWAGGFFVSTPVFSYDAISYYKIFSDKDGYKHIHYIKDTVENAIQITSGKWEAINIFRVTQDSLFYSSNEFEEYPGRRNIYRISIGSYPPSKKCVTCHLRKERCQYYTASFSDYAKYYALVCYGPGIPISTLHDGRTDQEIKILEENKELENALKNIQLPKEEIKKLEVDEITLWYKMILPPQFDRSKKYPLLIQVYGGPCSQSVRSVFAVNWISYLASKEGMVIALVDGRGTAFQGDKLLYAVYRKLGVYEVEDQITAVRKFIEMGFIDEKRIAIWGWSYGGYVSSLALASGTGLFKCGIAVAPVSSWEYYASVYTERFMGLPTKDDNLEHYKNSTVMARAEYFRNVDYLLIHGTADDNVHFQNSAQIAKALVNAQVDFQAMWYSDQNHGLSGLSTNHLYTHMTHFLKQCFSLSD

[1] = molecular target: Prolyl endopeptidase FAP (Homo sapiens) (UniProt Q12884); assay: Inhibition of FAP (unknown origin) at 1 uM TR-FRET assay relative to control
Prolyl endopeptidase = molecular target: T2, Prolyl endopeptidase (Homo sapiens, UniProt P48147)
T2 sequence (P48147 whole entry): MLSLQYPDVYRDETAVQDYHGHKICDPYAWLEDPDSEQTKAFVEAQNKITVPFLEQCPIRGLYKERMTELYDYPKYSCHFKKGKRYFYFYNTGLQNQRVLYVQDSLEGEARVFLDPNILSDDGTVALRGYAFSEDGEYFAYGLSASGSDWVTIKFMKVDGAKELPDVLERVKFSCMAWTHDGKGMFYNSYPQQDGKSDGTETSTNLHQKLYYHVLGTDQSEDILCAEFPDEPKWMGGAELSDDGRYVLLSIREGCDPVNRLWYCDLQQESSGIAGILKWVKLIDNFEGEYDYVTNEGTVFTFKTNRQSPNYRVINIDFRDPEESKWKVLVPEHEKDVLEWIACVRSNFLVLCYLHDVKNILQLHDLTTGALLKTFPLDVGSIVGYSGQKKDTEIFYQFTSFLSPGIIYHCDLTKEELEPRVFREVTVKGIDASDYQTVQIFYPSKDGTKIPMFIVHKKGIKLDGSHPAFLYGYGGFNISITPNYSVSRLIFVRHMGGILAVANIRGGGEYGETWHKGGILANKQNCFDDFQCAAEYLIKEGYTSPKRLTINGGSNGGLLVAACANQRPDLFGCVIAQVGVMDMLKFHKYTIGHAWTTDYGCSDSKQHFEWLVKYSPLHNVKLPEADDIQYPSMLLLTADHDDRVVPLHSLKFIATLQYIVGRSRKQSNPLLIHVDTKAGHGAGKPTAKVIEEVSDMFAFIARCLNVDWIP
Description: Inhibition of PREP (unknown origin) using AMC substrate by fluorometric assay

Dipeptidyl peptidase 4 = Dipeptidyl peptidase 4 (Homo sapiens, UniProt P27487); assay: Inhibition of DPP4 (unknown origin) using AMC substrate by fluorometric assay
Sequence of Dipeptidyl peptidase 4 (P27487 whole entry): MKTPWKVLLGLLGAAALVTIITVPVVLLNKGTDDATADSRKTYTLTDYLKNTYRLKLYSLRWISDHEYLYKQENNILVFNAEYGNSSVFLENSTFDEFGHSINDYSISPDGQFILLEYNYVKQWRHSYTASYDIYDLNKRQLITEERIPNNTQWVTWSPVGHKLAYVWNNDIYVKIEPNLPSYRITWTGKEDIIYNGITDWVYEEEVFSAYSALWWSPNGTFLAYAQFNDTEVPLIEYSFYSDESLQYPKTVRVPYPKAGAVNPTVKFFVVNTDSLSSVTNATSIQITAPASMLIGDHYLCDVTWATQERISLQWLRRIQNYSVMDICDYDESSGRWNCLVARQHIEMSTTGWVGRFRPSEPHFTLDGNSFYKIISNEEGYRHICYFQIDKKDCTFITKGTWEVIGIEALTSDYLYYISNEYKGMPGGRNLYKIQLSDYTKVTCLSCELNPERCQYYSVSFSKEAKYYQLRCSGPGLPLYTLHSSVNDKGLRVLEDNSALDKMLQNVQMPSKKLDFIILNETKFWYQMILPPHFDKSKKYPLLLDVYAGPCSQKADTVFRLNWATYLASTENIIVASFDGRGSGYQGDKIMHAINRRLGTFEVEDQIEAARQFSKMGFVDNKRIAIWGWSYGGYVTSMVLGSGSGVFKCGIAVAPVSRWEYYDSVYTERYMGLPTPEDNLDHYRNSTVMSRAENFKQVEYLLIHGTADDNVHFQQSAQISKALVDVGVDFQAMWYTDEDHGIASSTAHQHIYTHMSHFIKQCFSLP

Dipeptidyl peptidase 2 = Dipeptidyl peptidase 2 (Homo sapiens, UniProt Q9UHL4); assay: Inhibition of DPP2 (unknown origin) using AMC substrate by fluorometric assay
Mus musculus [2] = species: Mus musculus; conditions: C57BL/6J, dose 10-30 mg/kg, time hrs <=6
Mus musculus [3] = assay: Antidiabetic activity in ob/ob mouse assessed as reduction in plasma glucose level treated single oral dose of compound and recombinant human FGF21 intraperitoneally 60 mins prior to glucose challenge by OGTT; type: functional, organism-based; conditions: dose 20-50 mg/kg
Mus musculus [4] = species: Mus musculus; conditions: dose 20-50 mg/kg, time hrs <=9

Row | Compound | IC50 (Prolyl endopeptidase FAP) [nM] | inhibition [1] [%] | IC50 (Prolyl endopeptidase) [nM] | IC50 (Dipeptidyl peptidase 4) [nM] | IC50 (Dipeptidyl peptidase 2) [nM] | inhibition (Mus musculus [2]) | Activity (Mus musculus [3]) | inhibition (Mus musculus [4])
1 | N#C[C@@H]1CC(F)(F)CN1C(=O)CNC(=O)c1cccc(-c2ccc(Cl)cc2)n1 | 100 | 80.6 |  |  |  |  |  | 
2 | N#C[C@@H]1CC(F)(F)CN1C(=O)CNC(=O)c1csc(-c2ccc(Cl)cc2)n1 | 148 | 86.7 |  |  |  |  |  | 
3 | COc1ccc(-c2nc(C(=O)NCC(=O)N3CC(F)(F)C[C@H]3C#N)cs2)cc1 | 214 | 76.5 | 1180 |  |  |  |  | 
4 | C[C@@H](NC(=O)c1ccncc1)C(=O)N1CCC[C@H]1B(O)O |  |  |  | > 100000 | > 100000 |  |  | 
5 | N#C[C@@H]1CC(F)(F)CN1C(=O)CNC(=O)c1csc(Cc2ccccc2I)n1 | 78 | 90.6 |  | > 100000 |  |  |  | 
6 | N#C[C@@H]1CC(F)(F)CN1C(=O)CNC(=O)c1csc(Cc2ccc(-c3ccc(Cl)cc3)cc2)n1 | 145 | 93.8 |  | > 100000 |  |  |  | 
7 | N#C[C@@H]1CC(F)(F)CN1C(=O)CNC(=O)c1csc(Cc2ccccc2Br)n1 | 50 | 93.7 |  | 200 |  |  |  | 
8 | N#C[C@@H]1CC(F)(F)CN1C(=O)CNC(=O)c1csc(-c2ccc3occc3c2)n1 | 446 | 83.4 | 10000 |  |  |  |  | 
9 | C[S+]([O-])c1ccc(Cc2nc(C(=O)NCC(=O)N3CC(F)(F)C[C@H]3C#N)cs2)cc1 (stereo partly specified) | 390 | 95 | 1200 | 4120 |  |  |  | 
10 | N#C[C@@H]1CC(F)(F)CN1C(=O)CNC(=O)c1csc(Cc2ccc(F)c(F)c2)n1 | 47 | 95.4 |  | > 100000 |  |  |  | 
11 | N#C[C@@H]1CC(F)(F)CN1C(=O)CNC(=O)c1cnc(-c2ccc(Cl)cc2)cn1 | 795 | 64 |  |  |  |  |  | 
12 | N#C[C@@H]1CC(F)(F)CN1C(=O)CNC(=O)c1csc(-c2ccc(C(F)(F)F)cc2)n1 | 77 | 99 | 1380 | > 100000 |  |  |  | 
13 | Cn1cc(C(=O)NCC(=O)N2CC(F)(F)C[C@H]2C#N)cc1-c1ccc(Cl)cc1 | 104 | 85.3 |  |  |  |  |  | 
14 | Cc1ccc(Cc2nc(C(=O)NCC(=O)N3CC(F)(F)C[C@H]3C#N)cs2)cc1 | 37 | 97.8 |  | 68800 |  |  |  | 
15 | N#C[C@@H]1CC(F)(F)CN1C(=O)CNC(=O)c1c[nH]c(-c2ccc(Cl)cc2)c1 | 550 | 57.8 | 3620 |  |  |  |  | 
16 | N#C[C@@H]1CC(F)(F)CN1C(=O)CNC(=O)c1csc(Cc2ccc(F)cc2Cl)n1 | 60 | 95.9 |  | > 100000 |  |  |  | 
17 | N#Cc1ccc(Cc2nc(C(=O)NCC(=O)N3CC(F)(F)C[C@H]3C#N)cs2)cc1 |  | 99.3 | 3200 | > 100000 |  |  |  | 
18 | N#C[C@@H]1CC(F)(F)CN1C(=O)CNC(=O)c1csc(-c2ccc(F)cc2)n1 | 87 | 90.5 | 1600 |  |  |  |  | 
19 | N#C[C@@H]1CC(F)(F)CN1C(=O)CNC(=O)c1csc(-c2ccc(-c3ccccc3)cc2)n1 | 414 | 84.8 | 10000 |  |  |  |  | 
20 | N#C[C@@H]1CC(F)(F)CN1C(=O)CNC(=O)c1coc(-c2ccc(Cl)cc2)n1 | 93 | 88.7 | 4000 |  |  |  |  | 
21 | N#C[C@@H]1CC(F)(F)CN1C(=O)CNC(=O)c1csc(CSc2ccc(Cl)c(Cl)c2)n1 | 119 |  |  | > 100000 |  |  |  | 
22 | N#C[C@@H]1CC(F)(F)CN1C(=O)CNC(=O)c1csc(Cc2cc(Cl)ccc2Cl)n1 | 55 | 94.5 |  | > 100000 |  |  |  | 
23 | N#C[C@@H]1CC(F)(F)CN1C(=O)CNC(=O)c1csc(-c2ccc(Cl)cc2C(F)(F)F)n1 | 60 | 94.6 |  | > 100000 |  |  |  | 

More lines, main results first:

Row | IC50 (Prolyl endopeptidase FAP) [nM] | inhibition [1] [%] | IC50 (Prolyl endopeptidase) [nM] | IC50 (Dipeptidyl peptidase 4) [nM] | IC50 (Dipeptidyl peptidase 2) [nM] | Compound | inhibition (Mus musculus [2]) | Activity (Mus musculus [3]) | inhibition (Mus musculus [4])
24 | 24 |  | 138 | 44600 |  | N#Cc1ccc(SCc2nc(C(=O)NCC(=O)N3CC(F)(F)C[C@H]3C#N)cs2)cc1 |  |  | 
25 | 28 | 98.3 |  | 18700 |  | N#C[C@@H]1CC(F)(F)CN1C(=O)CNC(=O)c1csc(Cc2ccc(-n3cncn3)cc2)n1 |  |  | 
26 | 2 | 99 |  | > 100000 |  | N#C[C@@H]1CC(F)(F)CN1C(=O)CNC(=O)c1csc(Cc2ccc(Cl)c(Cl)c2)n1 | Dose-dependent effect | Dose-dependent effect | Active
27 | 9 |  |  | 76800 |  | N#Cc1ccc(S(=O)(=O)Cc2nc(C(=O)NCC(=O)N3CC(F)(F)C[C@H]3C#N)cs2)cc1 |  |  | 
28 | 35 | 97.5 |  | 52000 |  | N#C[C@@H]1CC(F)(F)CN1C(=O)CNC(=O)c1csc(Cc2cccc(Br)c2)n1 |  |  | 
29 | 1 | 97.2 |  | > 100000 |  | N#C[C@@H]1CC(F)(F)CN1C(=O)CNC(=O)c1csc(Cc2ccc(Cl)cc2Cl)n1 |  |  | 
30 | 35 |  |  | > 100000 |  | N#C[C@@H]1CC(F)(F)CN1C(=O)CNC(=O)c1csc(COc2ccc(Cl)c(Cl)c2)n1 |  |  | 
31 | 20 |  |  | > 100000 |  | Cc1ccc(S(=O)(=O)Cc2nc(C(=O)NCC(=O)N3CC(F)(F)C[C@H]3C#N)cs2)cc1 |  |  | 
32 | 5 |  |  | > 100000 |  | Cc1ccc(SCc2nc(C(=O)NCC(=O)N3CC(F)(F)C[C@H]3C#N)cs2)cc1 |  |  | 
33 | 12 | 98.7 |  | > 100000 |  | N#Cc1ccc(-c2ccc(Cc3nc(C(=O)NCC(=O)N4CC(F)(F)C[C@H]4C#N)cs3)cc2)cc1 |  |  | 
34 | 26 | 98 |  | > 100000 |  | COc1ccc(Cc2nc(C(=O)NCC(=O)N3CC(F)(F)C[C@H]3C#N)cs2)cc1 |  |  | 
35 | 25 | 99 |  | > 100000 |  | CSc1ccc(Cc2nc(C(=O)NCC(=O)N3CC(F)(F)C[C@H]3C#N)cs2)cc1 |  |  | 
36 | 4 | 99.3 |  | > 100000 |  | N#C[C@@H]1CC(F)(F)CN1C(=O)CNC(=O)c1csc(Cc2ccccc2-c2ccc3ccccc3c2)n1 |  |  | 
37 | 20 | 98 |  | 10100 |  | CS(=O)(=O)c1ccc(Cc2nc(C(=O)NCC(=O)N3CC(F)(F)C[C@H]3C#N)cs2)cc1 |  |  | 
38 | 7 |  |  | > 100000 |  | N#Cc1ccc(OCc2nc(C(=O)NCC(=O)N3CC(F)(F)C[C@H]3C#N)cs2)cc1 |  |  | 
39 | 16 | 100 |  | > 100000 |  | N#C[C@@H]1CC(F)(F)CN1C(=O)CNC(=O)c1csc(Cc2ccc(Br)cc2)n1 |  |  | 
40 | 21 | 98.6 |  | > 100000 |  | N#C[C@@H]1CC(F)(F)CN1C(=O)CNC(=O)c1csc(Cc2ccc(Cl)cc2)n1 |  |  | 
41 | 19 |  |  | > 100000 |  | N#C[C@@H]1CC(F)(F)CN1C(=O)CNC(=O)c1csc(CS(=O)(=O)c2ccc(Cl)c(Cl)c2)n1 |  |  | 
42 | 5 |  |  | > 100000 |  | N#C[C@@H]1CC(F)(F)CN1C(=O)CNC(=O)c1csc(CS(=O)(=O)c2ccc(C(F)(F)F)cc2)n1 |  |  | 
43 | 22 | 86.3 |  | > 100000 |  | N#C[C@@H]1CC(F)(F)CN1C(=O)CNC(=O)c1csc(Cc2ccc(OC(F)(F)F)cc2)n1 |  |  | 
44 | 11 |  |  | > 100000 |  | N#C[C@@H]1CC(F)(F)CN1C(=O)CNC(=O)c1csc(CSc2ccc(C(F)(F)F)cc2)n1 |  |  | 
45 | 23 | 98.8 |  | > 100000 |  | N#C[C@@H]1CC(F)(F)CN1C(=O)CNC(=O)c1csc(Cc2ccc(-n3cccn3)cc2)n1 |  |  | 

From ChEMBL document CHEMBL4706690, “Identification of BR102910 as a selective fibroblast activation protein (FAP) inhibitor” (Bioorg Med Chem Lett, 2021)
